Test results as given in US20250034135A1, “ANTI-APOPTOTIC PROTEIN BCL-2 INHIBITOR, PHARMACEUTICAL COMPOSITION AND USES THEREOF” (HANGZHOU HEALZEN THERAPEUTICS CO., LTD., priority 2021, published 2025).

Target: BCL2 (Homo sapiens (Human), UniProt P10415)
Test: Molecular level activity test of anti-apoptotic protein BCL2 (HTRF, binding to Bim peptide)
Settings: HTRF, binding of BCL2 to Bim peptide; read-out: BCL2 nM (inhibitory activity, IC50)
How it was run: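 Step one: compound, supplied in 2% DMSO, is mixed with His-tagged BCL2 and biotinylated Bim peptide and reacted for 1 h. Step two: anti-His and streptavidin-XL665 reagents in detection buffer are added. Step three: after a 4 h room-temperature incubation, time-resolved fluorescence is measured.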

Sequence of BCL2 (P10415 whole entry): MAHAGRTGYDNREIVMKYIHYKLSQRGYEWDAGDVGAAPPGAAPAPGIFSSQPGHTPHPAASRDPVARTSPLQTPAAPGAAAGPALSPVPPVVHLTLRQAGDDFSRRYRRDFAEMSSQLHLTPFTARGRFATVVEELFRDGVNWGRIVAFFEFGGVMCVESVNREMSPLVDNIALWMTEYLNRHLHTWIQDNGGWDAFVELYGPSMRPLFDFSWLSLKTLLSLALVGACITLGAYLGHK

IC50, < 10 nM:
CC(C)c1ccccc1[C@@H]1CCCN1C1CC2(CCN(c3cc(Oc4cnc5[nH]ccc5c4)c(C(=O)NS(=O)(=O)c4cc([N+](=O)[O-])c(NC[C@H]5CC[C@](C)(O)CC5)c5c4OCCO5)cc3F)CC2)C1 [compound 099, 2-((1H-pyrrolo[2,3-b]pyrid-5-yl)oxy)-5-fluoro-N-((8-((((1r, 4r)-4-hydroxy-4-methylcyclohexyl)methyl)amino)-7-nitro-2,3-dihydrobenzo[b][1,4]dioxan-5-yl)sulfonyl)-4-(2-((S)-2-(2-isopropylphenyl)pyrrolidin-1-yl)-7-azaspiro[3.5]non-7-yl)benzamide]
CC(C)c1ccccc1[C@@H]1CCCN1C1CC2(CCN(c3cc(Oc4cnc5[nH]ccc5c4)c(C(=O)NS(=O)(=O)c4cc([N+](=O)[O-])c(NC[C@H]5CC[C@](C)(O)CC5)c5c4CCO5)cc3F)CC2)C1 [compound 100, 2-((1H-pyrrolo[2,3-b]pyrid-5-yl)oxy)-5-fluoro-N-((7-((((1r, 4r)-4-hydroxy-4-methylcyclohexyl)methyl)amino)-6-nitro-2,3-dihydrobenzofuran-4-yl)sulfonyl)-4-(2-((S)-2-(2-isopropylphenyl)pyrrolidin-1-yl)-7-azaspiro[3.5]non-7-yl)benzamide]
CC(C)c1ccccc1[C@@H]1CCCN1C1CC2(CCN(c3cc(Oc4cnc5[nH]ccc5c4)c(C(=O)NS(=O)(=O)c4cc([N+](=O)[O-])c(NCC5(F)CCOCC5)c5c4OCO5)cc3F)CC2)C1 [compound 101, (S)-2-((1H-pyrrolo[2,3-b]pyrid-5-yl)oxy)-5-fluoro-N-((7-(((4-fluorotetrahydro-2H-pyran-4-yl)methyl)amino)-6-nitrobenzo[d][1,3]dioxocyclopent-4-yl)sulfonyl)-4-(2-(2-(2-isopropylphenyl)pyrrolidin-1-yl)-7-azaspiro[3.5]non-7-yl)benzamide]
CC(C)c1ccccc1[C@@H]1CCCN1C1CC2(CCN(c3cc(Oc4cnc5[nH]ccc5c4)c(C(=O)NS(=O)(=O)c4cc([N+](=O)[O-])c(NCC5(F)CCOCC5)c5occc45)cc3F)CC2)C1 [compound 102, (S)-2-((1H-pyrrolo[2,3-b]pyrid-5-yl)oxy)-5-fluoro-N-((7-(((4-fluorotetrahydro-2H-pyran-4-yl)methyl)amino)-6-nitrobenzofuran-4-yl)sulfonyl)-4-(2-(2-(2-isopropylphenyl)pyrrolidin-1-yl)-7-azaspiro[3.5]non-7-yl)benzamide]
CC(C)c1ccccc1[C@@H]1CCCN1C1CC2(CCN(c3cc(Oc4cnc5[nH]ccc5c4)c(C(=O)NS(=O)(=O)c4cc([N+](=O)[O-])c(NCC5(F)CCOCC5)c5ocnc45)cc3F)CC2)C1 [compound 103, (S)-2-((1H-pyrrolo[2,3-b]pyrid-5-yl)oxy)-5-fluoro-N-((7-(((4-fluorotetrahydro-2H-pyran-4-yl)methyl)amino)-6-nitrobenzo[d]oxazol-4-yl)sulfonyl)-4-(2-(2-(2-isopropylphenyl)pyrrolidin-1-yl)-7-azaspiro[3.5]non-7-yl)benzamide]
CC(C)c1ccccc1[C@@H]1CCCN1C1CC2(CCN(c3cc(Oc4cnc5[nH]ccc5c4)c(C(=O)NS(=O)(=O)c4cc([N+](=O)[O-])c(NCC5(F)CCOCC5)c5scnc45)cc3F)CC2)C1 [compound 104, (S)-2-((1H-pyrrolo[2,3-b]pyrid-5-yl)oxy)-5-fluoro-N-((7-(((4-fluorotetrahydro-2H-pyran-4-yl)methyl)amino)-6-nitrobenzo[d]thiazol-4-yl)sulfonyl)-4-(2-(2-(2-isopropylphenyl)pyrrolidin-1-yl)-7-azaspiro[3.5]non-7-yl)benzamide]
CC(C)c1ccccc1[C@@H]1CCCN1C1CC2(CCN(c3cc(Oc4cnc5[nH]ccc5c4)c(C(=O)NS(=O)(=O)c4cc([N+](=O)[O-])c(NCC5(F)CCOCC5)c5c4CCO5)cc3F)CC2)C1 [compound 105, (S)-2-((1H-pyrrolo[2,3-b]pyrid-5-yl)oxy)-5-fluoro-N-((7-(((4-fluorotetrahydro-2H-pyran-4-yl)methyl)amino)-6-nitro-2,3-dihydrobenzofuran-4-yl)sulfonyl)-4-(2-(2-(2-isopropylphenyl)pyrrolidin-1-yl)-7-azaspiro[3.5]non-7-yl)benzamide]
COc1ccc(CN2CCN(C3CC4(CCN(c5cc(Oc6cnc7[nH]ccc7c6)c(C(=O)NS(=O)(=O)c6cc([N+](=O)[O-])c(NCC7(F)CCOCC7)c7c6OCO7)cc5F)CC4)C3)[C@H](c3ccccc3C(C)C)C2)cc1 [compound 106, (R)-2-((1H-pyrrolo[2,3-b]pyrid-5-yl)oxy)-5-fluoro-N-((7-(((4-fluorotetrahydro-2H-pyran-4-yl)methyl)amino)-6-nitrobenzo[d][1,3]dioxocyclopent-4-yl)sulfonyl)-4-(2-(2-(2-isopropylphenyl)-4-(4-methoxybenzyl)piperazin-1-yl)-7-azaspiro[3.5]non-7-yl)benzamide]
COc1ccc(CN2CCN(C3CC4(CCN(c5cc(Oc6cnc7[nH]ccc7c6)c(C(=O)NS(=O)(=O)c6cc([N+](=O)[O-])c(NCC7(F)CCOCC7)c7ocnc67)cc5F)CC4)C3)[C@H](c3ccccc3C(C)C)C2)cc1 [compound 107, (R)-2-((1H-pyrrolo[2,3-b]pyrid-5-yl)oxy)-5-fluoro-N-((7-(((4-fluorotetrahydro-2H-pyran-4-yl)methyl)amino)-6-nitrobenzo[d]oxazol-4-yl)sulfonyl)-4-(2-(2-(2-isopropylphenyl)-4-(4-methoxybenzyl)piperazin-1-yl)-7-azaspiro[3.5]non-7-yl)benzamide]
COc1ccc(CN2CCN(C3CC4(CCN(c5cc(Oc6cnc7[nH]ccc7c6)c(C(=O)NS(=O)(=O)c6cc([N+](=O)[O-])c(NCC7(F)CCOCC7)c7scnc67)cc5F)CC4)C3)[C@H](c3ccccc3C(C)C)C2)cc1 [compound 108]
COc1ccc(CN2CCN(C3CC4(CCN(c5cc(Oc6cnc7[nH]ccc7c6)c(C(=O)NS(=O)(=O)c6cc([N+](=O)[O-])c(NCC7(F)CCOCC7)c7occc67)cc5F)CC4)C3)[C@H](c3ccccc3C(C)C)C2)cc1 [compound 109, (R)-2-((1H-pyrrolo[2,3-b]pyrid-5-yl)oxy)-5-fluoro-N-((7-(((4-fluorotetrahydro-2H-pyran-4-yl)methyl)amino)-6-nitrobenzofuran-4-yl)sulfonyl)-4-(2-(2-(2-isopropylphenyl)-4-(4-methoxybenzyl)piperazin-1-yl)-7-azaspiro[3.5]non-7-yl)benzamide]
COc1ccc(CN2CCN(C3CC4(CCN(c5cc(Oc6cnc7[nH]ccc7c6)c(C(=O)NS(=O)(=O)c6cc([N+](=O)[O-])c(NCC7(F)CCOCC7)c7c6OCCO7)cc5F)CC4)C3)[C@H](c3ccccc3C(C)C)C2)cc1 [compound 110, (R)-2-((1H-pyrrolo[2,3-b]pyrid-5-yl)oxy)-5-fluoro-N-((8-(((4-fluorotetrahydro-2H-pyran-4-yl)methyl)amino)-7-nitro-2,3-dihydrobenzo[b][1,4]dioxane-5yl)sulfonyl)-4-(2-(2-(2-isopropylphenyl)-4-(4-methoxybenzyl)piperazin-1-yl)-7-azaspiro[3.5]non-7-yl)benzamide]
COc1ccc(CN2CCN(C3CC4(CCN(c5cc(Oc6cnc7[nH]ccc7c6)c(C(=O)NS(=O)(=O)c6cc([N+](=O)[O-])c(NCC7(F)CCOCC7)c7oc(C)cc67)cc5F)CC4)C3)[C@H](c3ccccc3C(C)C)C2)cc1 [compound 111, (R)-2-((1H-pyrrolo[2,3-b]pyrid-5-yl)oxy)-5-fluoro-N-((7-(((4-fluorotetrahydro-2H-pyran-4-yl)methyl)amino)-2-methyl-6-nitrobenzofuran-4-yl)sulfonyl)-4-(2-(2-(2-isopropylphenyl)-4-(4-methoxybenzyl)piperazin-1-yl)-7-azaspiro[3.5]non-7-yl)benzamide]
COc1ccc(CN2CCN(C3CC4(CCN(c5cc(Oc6cnc7[nH]ccc7c6)c(C(=O)NS(=O)(=O)c6cc([N+](=O)[O-])c(NCC7(F)CCOCC7)c7c6CCO7)cc5F)CC4)C3)[C@H](c3ccccc3C(C)C)C2)cc1 [compound 112, (R)-2-((1H-pyrrolo[2,3-b]pyrid-5-yl)oxy)-5-fluoro-N-((7-(((4-fluorotetrahydro-2H-pyran-4-yl)methyl)amino)-6-nitro-2,3-dihydrobenzofuran-4-yl)sulfonyl)-4-(2-(2-(2-isopropylphenyl)-4-(4-methoxybenzyl)piperazin-1-yl)-7-azaspiro[3.5]non-7-yl)benzamide]
COc1ccc(CN2CCN(C3CC4(CCN(c5cc(Oc6cnc7[nH]ccc7c6)c(C(=O)NS(=O)(=O)c6cc([N+](=O)[O-])c(NC[C@H]7CC[C@](C)(O)CC7)c7c6OCO7)cc5F)CC4)C3)[C@H](c3ccccc3C(C)C)C2)cc1 [compound 113, 2-((1H-pyrrolo[2,3-b]pyrid-5-yl)oxy)-5-fluoro-N-((7-((((1r, 4r)-4-hydroxy-4-methylcyclohexyl)methyl)amino)-6-nitrobenzo[d][1,3]dioxocyclopent-4-yl)sulfonyl)-4-(2-((R)-2-(2-isopropylphenyl)-4-(4-methoxybenzyl)piperazin-1-yl)-7-azaspiro[3.5]non-7-yl)benzamide]
COc1ccc(CN2CCN(C3CC4(CCN(c5cc(Oc6cnc7[nH]ccc7c6)c(C(=O)NS(=O)(=O)c6cc([N+](=O)[O-])c(NC[C@H]7CC[C@](C)(O)CC7)c7ocnc67)cc5F)CC4)C3)[C@H](c3ccccc3C(C)C)C2)cc1 [compound 114, 2-((1H-pyrrolo[2,3-b]pyrid-5-yl)oxy)-5-fluoro-N-((7-((((1r, 4r)-4-hydroxy-4-methylcyclohexyl)methyl)amino)-6-nitrobenzo[d]oxazol-4-yl)sulfonyl)-4-(2-((R)-2-(2-isopropylphenyl)-4-(4-methoxybenzyl)piperazin-1-yl)-7-azaspiro[3.5]non-7-yl)benzamide]
